As usually defined, the IC50 is the concentration at which inhibition is half-maximal. The term LD50 denotes the dose at which mortality reaches 50%. By Kd is commonly meant a measure of binding affinity in units of concentration. As usually defined, the bioavailability is dose-corrected exposure relative to a reference, in per cent.

Each structure is given as a SMILES string. “Also recorded” adds a separate entry of the source. Where a name gives a salt, the structure may show the parent alone. Read-outs that look alike come from different tables or passages of the source.

Results on three compounds are retold here after patent US12503484B2, “Androstane derivatives with activity as pure or predominantly pure stimulators of SERCA2a for the treatment of heart failure” (Seismic Pharmaceuticals, priority 2019, dated 2025).

Data set [1] deals with dog renal Na^+/K^+ ATPase (Canis lupus familiaris (Dog) (Canis familiaris), UniProt P50997). The data set can be described thus: biochemical. The settings on record: IC50 inhibition of dog renal Na+/K+ ATPase, purified dog kidney enzyme.
A short description of data set [2]: Acute toxicity in the mouse. The settings on record: Albino Swiss CD-1, in vivo. On the procedure: The acute toxicity of the tested compound CVie214-salt and CVie216-salt have been determined in the mouse (Albino Swiss CD-1, body weight 30 g). Compounds have been orally administered or intravenously injected at increasing doses to identify the dose causing 50% mortality. Mortality occurred within 30 min after the administration and survival after 24 h.
As comparison, the acute toxicity for the reference compounds Digoxin and Istaroxime were also included. Digoxin refers to literature data (www.lookchem.com, Reference for Digoxin intravenous: Afifi A M, Ammar E M. Pharmacological Research Communications. Vol. 6, Pg. 417, 1974; Reference for Digoxin oral: Archives Internationales de Pharmacodynamie et de Therapie. Vol. 153, Pg. 436, 1965) (Table 3).

The next data set concerns the target SERCA2a (Cavia porcellus, UniProt A0A286XD73). The experiment in a line: SERCA2a ATPase activity in heart-derived SR microsomes from normal guinea-pig. Format: biochemical. The protocol:
SERCA2a ATPase Activity in Heart-Derived SR Microsomes from Normal Quinea-Pig
SERCA2a activity was measured in vitro as ^32P-ATP hydrolysis at different Ca^2+ concentrations (100-4000 nM) in the absence and presence of the tested compounds, as described (Micheletti R. et al., Am J Card 2007, 99:24A-32A). Increasing concentrations of each compound (ranging from 1 to 200 nM) were pre-incubated with 2 μg of SERCA2a enriched microsomes for 5 min at 4° C. in 80 μl of a solution containing 100 mM KCl, 5 mM MgCl2, 1 μM A23187, 20 mM Tris, pH 7.5. […] SERCA2a-dependent activity was identified as the portion of total hydrolytic activity inhibited by 10 μM cyclopiazonic acid (Seidler N W et al., J Biol Chem. 1989, 264:17816-23).
Dose-response curves were fitted by using a sigmoidal equation and the activity at the maximal velocity (Vmax) and the Kd for Ca^2+ were calculated (Synergy Software KaleidaGraph 3.6). The effect of the compounds in normal guinea-pig preparations was expressed as % decrease of Kd Ca^2+ (implying an increase of affinity for Ca^2+) of a control sample run in the absence of compound (Table 2). […] Data are mean±SD, n=number of experiments, *at least p<0.05.

A further data set can be described thus: in vivo. Details: dose or concentration left out as unconfirmed. The settings on record: rat.
The subject of the next data set is STZ diabetic rats. The experiment in a line: Haemodynamics in streptozotocin diabetic rats (echocardiography). Format: in vivo, rat. The protocol: CVie214 and CVie216 were tested in a diabetic rat model. Briefly, rats were injected with streptozotocin (STZ). After 7-9 weeks from STZ injection, rats were submitted to transthoracic echocardiographic and Doppler evaluation performed under urethane anesthesia. Two-dimensionally guided M-mode recordings were used to obtain short-axis measurements of left ventricular end-diastolic diameter (LVEDD), left ventricular end-systolic diameter (LVESD), posterior (PW) and septal (SW) diastolic wall thickness according to the American Society of Echocardiography guidelines (Lang R M et al., Eur J Echocardiography 2006, 7:79-108). Fractional shortening was calculated as FS=(LVEDD−LVESD)/LVEDD. Relative wall thickness was calculated as PWTd+IVSTd/LVEDD. Mitral inflow was measured by pulsed Doppler at the tips of mitral leaflets from an apical 4-chamber view to obtain early and late filling velocities (E, A) and deceleration time of early filling velocity (DT). The deceleration slope was calculated as E/DT ratio. The mitral deceleration index was calculated as DT/E ratio. Tissue Doppler Imaging (TDI) was evaluated from the apical 4-chamber view to record septal mitral annular movements, i.e., peak myocardial systolic (s′) and early and late diastolic velocity (e′ and a′).
After baseline hemodynamic measurements were taken, the rats were administered Digoxin, CVie214, CVie216 and compared to control. Digoxin, used as reference drug, was intravenously infused at 0.11 mg/kg/min for 15 min and echocardiographic parameters measured after 1 h. CVie214-salt and CVie216-salt were intravenously infused in STZ diabetic rats at 0.2 mg/kg/min and echocardiographic parameters were measured after 15 min and 30 min.
Tables 4-6 show the haemodynamic parameters in STZ diabetic rats for Digoxin, CVie214-salt, and Cvie216-salt.

Data set [3] has as its system guinea-pig ventricular myocytes. The experiment in a line: Action potential measurements in guinea-pig ventricular myocytes. It counts as cell-based. The settings on record: 1 μM. On the procedure:
(§1) The compounds were characterized for their effect on (i) SR Ca^2+ uptake function and (ii) action potential (AP) in myocytes freshly dissociated from rat and guinea-pig ventricles, respectively, by retrograde coronary perfusion with enzymatic solution (Rocchetti M et al., J Pharmacol Exper Therap 2005, 313(1):207-215).
Cvie216 and Cvie214 effects on action potential parameters were evaluated at the concentration of 1 μM modulating SERCA2a in guinea-pig myocytes. The action potential (AP) contour provides a first-line estimate of the integrated function of membrane ion channels, and its changes may disclose ancillary actions—potentially resulting in untoward effects of the compound. To increase sensitivity of the AP contour as a reporter, effects on the rate-dependency of AP parameters were also tested, thus providing a multiparametric (more stringent) approach. AP were recorded in guinea-pig ventricular myocytes because the AP contour reproduces the human AP. […] Statistical analysis was performed by a “group comparison” model.
APs were recorded in normal Tyrode's solution at 36.5° C. in guinea-pig ventricular myocytes. The following parameters were measured at 4 stimulation rates (0.5-1-2-4 Hz): diastolic membrane potential (Ediast), maximum depolarization velocity (dV/dtmax), action potential duration (APD at 90% of repolarization). Short term APD variability (STV) during steady-state pacing, an index of repolarization stability, was measured as the sum of absolute orthogonal deviations from the identity line in the APDnfAPDn+1 plot (Poincare plot) (Altomare C et al., Circulation A&E 2015, 8:1265-1275).

The test system of data set [4] is rat ventricular myocytes isolated from STZ rats. The data set can be described thus: SR Ca2+ uptake function in ventricular myocytes from STZ rats (loading protocol). Format: cell-based. The settings on record: 1 μM.
From the text: as §1
To test the effects of the compounds in a model of diastolic dysfunction, Sprague Dawley male rats (150-175 g) were made diabetic by a single tail vein injection of streptozotocin (STZ 50 mg/kg, Sigma-Aldrich). STZ was freshly prepared in 0.1 M sodium citrate buffer at pH 4.5. Fasting glycaemia was measured after 1 week and rats with values >300 mg/dl were considered diabetic. Drug effects on SR Ca^2+ uptake function were evaluated in isolated left ventricular myocytes 9 weeks after STZ injection. Myocytes were incubated for at least 30 min in the presence of a specific drug to guarantee its cell membrane permeation. Statistical analysis was performed by a “group comparison” model.
Drug effects on SR Ca^2+ uptake rate were evaluated with a SR “loading protocol” specifically devised to rule out the contribution of the Na/Ca exchanger (NCX) and to assess the uptake rate starting at low levels of SR Ca^2+ loading. Under voltage-clamp conditions, intracellular Ca^2+ concentration was dynamically measured by epifluorescence (Fluo4-AM). Membrane current, whose time-dependent component mainly reflected ICaL, was simultaneously recorded. The SR loading protocol consisted in emptying the SR by a brief caffeine pulse and then progressively refilling it by voltage steps activating Ca^2+ influx through the sarcolemmal Ca^2+ channel (ICaL). NCX was blocked by omission of Na^+ from intracellular and extracellular solutions. The procedure is in agreement with published methods, with minor modifications (Rocchetti M et al., J Pharmacol Exper Therap 2005, 313:207-215).
Drug effects on SR Ca^2+ uptake were analyzed by considering multiple parameters: the rate at which 1) Ca^2+ transient (CaT) amplitude and 2) the Ca^2+ induced Ca^2+ release (CICR) gain increased during the loading protocol, reflecting the rate at which the SR refilled and the gain of the system, 3) the time constant of cytosolic Ca^2+ decay (τdecay) within each pulse, reflecting net Ca^2+ transport rate (by SERCA2a) across the SR membrane (a decrease in τdecay corresponds to enhanced SR Ca^2+ uptake).

Setting [5] is: after 15 min IV infusion 0.2 mg/kg/min.
Setting [6] is: after 30 min IV infusion 0.2 mg/kg/min.
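Wherever IC50 is given: enzyme preincubated with inhibitor 10 min at 37 °C, then K^+ and ^32P-ATP added for 15 min, released ^32P counted, activity relative to untreated control.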

Chain of SERCA2a (A0A286XD73 1-997): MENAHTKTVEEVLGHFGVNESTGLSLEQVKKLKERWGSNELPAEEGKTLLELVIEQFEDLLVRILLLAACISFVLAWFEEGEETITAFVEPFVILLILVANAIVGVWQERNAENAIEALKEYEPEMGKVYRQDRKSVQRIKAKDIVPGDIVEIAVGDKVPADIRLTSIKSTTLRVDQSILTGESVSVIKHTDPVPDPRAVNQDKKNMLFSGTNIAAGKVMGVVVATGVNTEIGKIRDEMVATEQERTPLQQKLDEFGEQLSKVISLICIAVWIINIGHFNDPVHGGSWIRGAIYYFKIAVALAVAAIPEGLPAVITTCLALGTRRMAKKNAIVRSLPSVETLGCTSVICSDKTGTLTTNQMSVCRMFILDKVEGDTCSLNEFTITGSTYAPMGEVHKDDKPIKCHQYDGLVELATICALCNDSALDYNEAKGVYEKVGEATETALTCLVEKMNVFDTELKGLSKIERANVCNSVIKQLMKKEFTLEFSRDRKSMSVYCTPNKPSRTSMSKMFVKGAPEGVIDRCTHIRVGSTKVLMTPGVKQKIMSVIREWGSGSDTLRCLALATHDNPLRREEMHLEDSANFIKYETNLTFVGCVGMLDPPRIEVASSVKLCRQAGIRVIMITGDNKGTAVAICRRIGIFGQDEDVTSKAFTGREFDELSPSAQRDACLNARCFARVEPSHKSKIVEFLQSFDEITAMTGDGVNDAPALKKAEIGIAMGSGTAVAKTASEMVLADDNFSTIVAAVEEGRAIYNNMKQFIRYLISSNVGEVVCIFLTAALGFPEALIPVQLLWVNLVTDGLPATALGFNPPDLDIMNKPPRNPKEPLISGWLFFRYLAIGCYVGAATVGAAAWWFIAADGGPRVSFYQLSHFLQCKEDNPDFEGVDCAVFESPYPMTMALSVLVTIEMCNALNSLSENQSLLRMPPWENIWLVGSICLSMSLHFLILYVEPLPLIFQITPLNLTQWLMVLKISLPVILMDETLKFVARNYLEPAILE

In data set [1], `C[C@]12CC/C(=N/OCCN)C[C@@H]1C(=O)C[C@@H]1[C@@H]2CC[C@]2(C)C(=O)CC[C@@H]12` [Istaroxime, (3Z,5a)-3-[(2-aminoethoxy)imino]androstane-6,17-dione, reference compound] had a concentration for half-maximal inhibition (IC50) of 140 nM. For the same compound, the LD50 at 24 h in data set [2] (iv) was 29 to 32 mg/kg; in data set [2] (oral, os), 200 mg/kg. Besides, the Kd at SERCA2a (compound 1 nM, read-out: Kd Ca2+ (nM) mean ± SD) was found to be 524 ± 57.4 nM; on SERCA2a (compound 10 nM, read-out: Kd Ca2+ (nM) mean ± SD), 464 ± 52.4 nM; on SERCA2a (compound 100 nM, read-out: Kd Ca2+ (nM) mean ± SD) it was 462 ± 59.1 nM.

For the compound `C[C@]12CC[C@H](CCCC(=O)O)CC1[C@@H](O)CC1C2CC[C@]2(C)C(=O)CCC12` (stereo partly drawn) [CVie214-salt, 4-(6alpha-hydroxy-17-oxoandrostane-3-yl) butyric acid], in data set [2] (iv), the 50% lethal dose (LD50) at 24 h turned out to be 300 mg/kg. In data set [2] (oral, os), this compound showed an LD50 at 24 h of more than 800 mg/kg. In the data set “in vivo”, this compound yielded a bioavailability of 41.5%. In addition, in the data set with STZ diabetic rats (IV infusion), the “diastolic function (in words)” value is “ameliorated diastolic function”; the “overall cardiac function, SV and CO (in words)” value is “improvement”. Further, in the data set on STZ diabetic rats (setting [5]), the “A late filling velocity of mitral inflow” value was 0.65 ± 0.13 m/s, the CO cardiac output was 177.23 ± 40.64 mL/min, the “DT deceleration time of E wave” value is 42.5 ± 10.19 ms and the “DT/E mitral deceleration index” value was 49.52 ± 12.41 s2/m. For the same compound, in the data set on STZ diabetic rats (setting [5]), the “E early filling velocity of mitral inflow” value stood at 0.88 ± 0.15 m/s, the “E/A index of LV function” value is given as 1.36 ± 0.17, the E/DT deceleration slope stood at 21.49 ± 5.8 m/s2 and the “E/e′ index of LV filling pressure” value stood at 37.49 ± 4.34. Further, in the data set on STZ diabetic rats (setting [5]), the FS fractional shortening amounted to 58.1 ± 8.59%, the HR heart rate was 268 ± 54 beat/min, the SV stroke volume is 0.68 ± 0.19 ml/beat and the “a′ TDI late relaxation velocity” value worked out at 29.13 ± 6.56 cm/s. Moreover, in the data set with STZ diabetic rats (setting [5]), the “e′ TDI early relaxation velocity” value was found to be 23.33 ± 2.62 cm/s and the “s′ TDI contraction velocity” value stood at 22.45 ± 3.12 cm/s. Besides, in the data set with STZ diabetic rats (setting [6]), the “A late filling velocity of mitral inflow” value is 0.69 ± 0.11 m/s, the CO cardiac output turned out to be 175.15 ± 33.96 mL/min, the “DT deceleration time of E wave” value is 42.15 ± 9.88 ms and the “DT/E mitral deceleration index” value came out at 48.51 ± 16.44 s2/m. For the same compound, in the data set on STZ diabetic rats (setting [6]), the “E early filling velocity of mitral inflow” value was found to be 0.91 ± 0.16 m/s, the “E/A index of LV function” value came to 1.34 ± 0.21, the E/DT deceleration slope is 23.18 ± 8.37 m/s2 and the “E/e′ index of LV filling pressure” value came to 37.47 ± 4.48. For the same compound, in the data set on STZ diabetic rats (setting [6]), the FS fractional shortening is given as 60.69 ± 8.36%, the HR heart rate came out at 252 ± 49 beat/min, the SV stroke volume is given as 0.71 ± 0.16 ml/beat and the “a′ TDI late relaxation velocity” value is 28.94 ± 5.32 cm/s. Further, in the data set on STZ diabetic rats (setting [6]), the “e′ TDI early relaxation velocity” value amounted to 24.24 ± 2.34 cm/s and the “s′ TDI contraction velocity” value was 21.82 ± 2.81 cm/s.

Take `C[C@]12CC[C@H](CCCC(=O)O)CC1[C@@H](O)CC1C2CC[C@]2(C)C(=O)CCC12` (stereo partly drawn) [CVie214, 4-(6alpha-hydroxy-17-oxoandrostane-3-yl) butyric acid]: the IC50 in data set [1] was more than 100000 nM. Besides, in the data set on STZ diabetic rats (setting [5]), the HR heart rate entry was “modestly, but significantly, increased” and the “s′ TDI contraction velocity” value is recorded as “modestly, but significantly, increased”. Also, in data set [3] (0.5-1-2-4 Hz), the “action potential duration (APD90)” value was “did not affect”, the “diastolic membrane potential (Ediast)” value is reported as “did not affect”, the “maximum depolarization velocity (dV/dtmax)” value is on record as “did not affect” and the “rate-dependency of each AP parameter” value is “did not affect”. In data set [3] (all pacing rates pooled), the “slope of linear fit STV vs mean APD90” value is 0.014. Also, the “short term APD variability (STV) and its dependency on mean APD” value in data set [3] (pacing rates 0.5-1-2 and 4 Hz) was “not significantly affected”. In addition, in data set [4], the “Ca2+ transient (CaT) amplitude / rate of CaT increment during SR reloading” value was “failed to significantly increase”, the “Ca2+ uptake by the SR” value was “significantly increased”, the “Ca2+-induced Ca2+ release (CICR) gain” value was “affected by the drug as expected from SERCA2a enhancement” and the “time constant of Ca2+ decay (τdecay)” value is given as “close to significance; also recorded: affected by the drug as expected from SERCA2a enhancement”. Also, the Kd on SERCA2a (read-out: Kd Ca2+ (nM) mean ± SD, compound 1 nM) is 474 ± 40.4 nM. In addition, the Kd on SERCA2a (read-out: Kd Ca2+ (nM) mean ± SD, compound 10 nM) was 467 ± 62.4 nM. The Kd at SERCA2a (read-out: Kd Ca2+ (nM) mean ± SD, compound 100 nM) is 427 ± 48.9 nM. Besides, on SERCA2a (read-out: Kd Ca2+ (nM) mean ± SD, compound 200 nM), the Kd stood at 409 ± 60.1 nM.
